Some results are limits rather than exact numbers.

The MIC is the least concentration at which growth counts as inhibited.

Data set [1] relates to Herpes Simplex Virus type 2 strain G (No. VR-734 ATCC). The data set can be described thus: Antiviral activity, virus cytopathogenic action in Vero cells. It counts as cell-based. The following applies: 48 hours. The method, then:
[…] used in the study were used Herpes Simplex Virus type 1 (the Collection of Microorganisms at the Scientific Research Institute of Virology, strain EC), Herpes Simplex Virus type 2 strain G (No. VR-734 ATCC), and human cytomegalovirus strain AD169 (No. VR-538 ATCC). Herpes Simplex viruses type 1 and type 2 were cultured in Vero cells. The cells were incubated in MEM Eagle growth medium (MEM, BioloT, St-Petersburg, 1.3.3) supplemented with 10% fetal bovine serum (BioloT, St-Petersburg, 1.3.12) in Sanyo MCO-15AC gas-flow thermostat (37° C., 5% CO2) (Tokyo, Japan). A seed dose was 2×10^5 cells/ml in the starting inoculum or 2×10^4 cells/well. Herpes Simplex viruses were cultured under the same conditions in the MEM medium without serum (maintenance medium). Starting viral titers were 10^7 TCID50/ml.
For DMSO-soluble preparations, stock solutions were prepared in a concentration of 10 mM in DMSO. For water-soluble preparations, a stock solution prepared had the same concentration in the MEM medium (Minimal Essential Medium) for cell cultures. To control cytotoxicity (see below), the stock solution was diluted in the medium to a concentration of 100 μM and ten-fold serial dilutions of the preparations were made in the MEM medium (for DMSO-soluble compounds—in the MEM medium comprising 3% DMSO). The following concentrations of the preparations were used in the study of […]: if toxicity was not found, the concentrations of 100 μM preparations were 100, 10 and 1 μM; if toxicity was detected, the concentrations of 100 μM preparations were 10, 1, and 0.1 μM. Acyclovir (10 μg/ml) was used for Herpes Simplex viruses of both types as a reference preparation to control the viral model validity.
To study antiviral activity, plate wells with a cell monolayer were added with the preparations in an amount of 0.1 ml/well. To compensate a reduction in the concentration of the preparations, which takes place in the following addition of viruses, twofold concentrations of compounds (i.e. 200, 20 and 2 or 20, 2 and 0.2 μM for […] concentrations of 100 μM preparations, respectively) were used, incubated for an hour and then were infected with the examined 0.1 ml/well viruses in doses 1, 10 and 100 TCID50 (50% tissue infectious dose).
The virus-specific cytogenic action was manifested in an increase in the size of cells, their rounding, and detachment from a substrate. These morphological characteristics served as their marked difference from the cells subjected to a toxic action of high concentrations of the examined preparations. The latter acquired spindle-like shape, lost contacts with neighboring cells of the monolayer, and their boundaries became more distinct.
Intensity of the virus-specific changes in the cells were semi-quantified using a 4-score system: 0—CPA (cytopathogenic action) is not detected; 1—up to 25% virus-infected monolayer; 2—from 25% to 50%; 3—from 50% to 75%; and 4—from 75% to 100%. The antiviral activity of a compound was evaluated according to their ability to reduce the manifestation of cytopathogenic action in the plate wells compared to the control values. Differences with the control values by 1 score and more were considered to be significant.
On the technique in general: Damage to the host cells serves as the signal in cytopathic effect assays.

The test system of data set [2] is Enterococcus faecalis No. 559. The data set can be described thus: Antibacterial specific activity, twofold dilutions, visual growth evaluation. The settings on record: E. faecalis 559; 36° C., 24 hours. It counts as cell-based. An outline of the steps:
(§1)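 Broth microdilution: twofold serial dilutions of compound in water or DMSO, each well inoculated at 5×10^5 CFU/ml, incubated 36° C. for 24 hours. MIC taken as the last dilution visibly suppressing growth versus compound-free growth control. S. aureus grown on Trypticase Soy Agar, E. faecalis on Columbia Agar.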

For data set [3], the system named is Staphylococcus aureus No. 100 KC. Described as above. It counts as cell-based. The following applies: S. aureus 100 KC; 36° C., 24 hours. An outline of the steps: as §1
Data set [4] has as its system Staphylococcus aureus No. 25923 ATCC. Described as above. It counts as cell-based. The settings on record: S. aureus 25923; 36° C., 24 hours. An outline of the steps: as §1
Data set [5] concerns Staphylococcus aureus No. 3797 (MRSA). The description is as above. The settings on record: St. aur No. 3797 MRSA; 36° C., 24 hours. In kind it is cell-based. An outline of the steps:
as §1

Data set [6] has as its system Vancomycin-resistant Enterococcus faecium 569. Described as above. It counts as cell-based. The following applies: Vancomycin-resistant E. faecium 569; 36° C., 24 hours. An outline of the steps:
as §1

Data set [7] has as its system Staphylococcus aureus No. 5 (MRSA). Described as above. In kind it is cell-based. The settings on record: St. aur No. 5 MRSA; 36° C., 24 hours. An outline of the steps: as §1
Data set [8] relates to Staphylococcus epidermidis No. 533. Described as above. In kind it is cell-based. The following applies: S. epidermis 533; 36° C., 24 hours. An outline of the steps: as §1
The test system of data set [9] is Escherichia coli 4300. The data set is described as above. It counts as cell-based. The following applies: E. coli 4300; 36° C., 24 hours.
Data set [10] is described as follows: Water solubility.

Take “6,7-bis-[(Diamide N^α-L-Glycyl)-L-glutamyl]-Protohemin (IX) [XIII]”: the “manifestation of the virus CPA” value in data set [1] (HSV-2, virus dose 1, concentration 0.1 μM) is listed as 1 (up to 25% virus-infected monolayer); in data set [1] (HSV-2, virus dose 1, concentration 1 μM), 1 (up to 25% virus-infected monolayer); in data set [1] (HSV-2, virus dose 1, concentration 10 μM) it was 0.5 scores; in data set [1] (HSV-2, virus dose 10, concentration 0.1 μM), 2 (from 25% to 50%); in data set [1] (HSV-2, virus dose 10, concentration 1 μM), 2 (from 25% to 50%); in [1] (HSV-2, virus dose 10, concentration 10 μM), 1^1 (up to 25% virus-infected monolayer). The “manifestation of the virus CPA” value is listed as 3 (from 50% to 75%) in data set [1] (HSV-2, virus dose 100, concentration 0.1 μM); 3 (from 50% to 75%) in [1] (HSV-2, virus dose 100, concentration 1 μM); 3 (from 50% to 75%) in data set [1] (HSV-2, virus dose 100, concentration 10 μM). In addition, the MIC is 12.5 µM in [2]; 12.5 µM in data set [3]; 12.5 µM in data set [4]; 50 µM in data set [5]; more than 50.0 µM in data set [6]; 83 µM in data set [7]. For the same substance, the values for the MIC in data set [8] and in data set [9] were 12.5 µM and more than 50.0 µM, respectively. Also, the water solubility entry in [10] is given as “water-soluble”.

Values taken from patent US9605013B2, “Derivatives of hemin with antibacterial and antiviral activity” (OBSCHESTVO S OGRANICHENNOI OTVETSTVENNOSTIYU …, priority 2011, dated 2017).
